The values below come from patent US20260049101A1, “TOPICAL TREATMENT OF SKIN CANCER USING OLIGOPEPTIDES” (BACOBA AG, priority 2022, published 2026).

For orientation: IC50 means the midpoint of a concentration-inhibition curve.

Numbered stars: 1 amine (or outer) side, 2 acyl side, 3 side chain; on linkers, the order of the positions; unused ones are H or OH. Square brackets hold non-standard residues; d marks the D form. Peptide text beside a SMILES is read from it. * marks the point of attachment. X4 = C[C@](N[*:1])(C(=O)[*:2])C(F)(F)F; NH(1-CH2NMe2-cBu) = CN(C)CC1(N*)CCC1; Gly(octyl) = CCCCCCCC[C@H](N)C(=O)O; Oxazole4CO(2-Me) = Cc1nc(C(=O)*)co1; Benzoyl(4-F) = O=C(c1ccc(F)cc1)*; hCha = N[C@@H](CCC1CCCCC1)C(=O)O; β3hL = CC(C)C[C@H](N)CC(=O)O; Aib = CC(C)(N)C(=O)O; X3 = CN(CCN*)CC(F)F; βAla = NCCC(=O)O Some results are limits rather than exact numbers.

This test concerns cutaneous squamous cell carcinoma cell line SCC12. As to the kind of experiment: In vitro anti-proliferative assay (resazurin) in SCC12. The test is classed as cell-based. The conditions noted are these: SCC12, 72 hours. The source says: Methodology. The cutaneous squamous cell carcinoma cell culture SCC12 was cultivated in keratinocyte-SFM media (KSFM, Cat #17005042, Gibco) supplemented with human recombinant epidermal growth factor 1-53 (EGF 1-53) and bovine pituitary extract (BFE).
Vehicle treated wells were set to 100% viability.
In general terms: Alamar Blue is a resazurin reagent that responds to reducing activity.
For the compound `CC(C)C[C@H](NC(=O)[C@H](CCC1CCCCC1)NC(=O)[C@@H]1CCCN1C(=O)c1ccc(F)cc1)C(=O)NCC(C)(C)C(=O)N[C@@H](CC(C)C)C(=O)N[C@@H](CC(C)C)C(=O)NCC(C)(C)C(=O)NCC(C)(C)C(=O)NCCC(=O)NC1(CN(C)C)CCC1` [Compound 21189, (2S)-2-[(2S)-4-cyclohexyl-2-{[(2S)-1-(4-fluorobenzoyl)pyrrolidin-2-yl]formamido}butan-amido]-N-(2-{[(1S)-1-{[(1S)-1-({2-[(2-{[2-({1-[(dimethylamino)methyl]cyclobutyl}carbamoyl)ethyl]carbamoyl}-2,2-dimethylethyl)carbamoyl]-2,2-dimethylethyl}carbamoyl)-3-methylbutyl]carbamoyl}-3-methylbutyl]carbamoyl}-2,2-dimethylethyl)-4-methylpentanamide], the IC50 is above 10000 nM.
The result for `CCCCCCCC[C@H](NC(=O)[C@@H]1CCCN1C(=O)c1coc(C)n1)C(=O)N[C@@H](CC(C)C)C(=O)NC(C)(C)C(=O)N[C@@H](CC(C)C)C(=O)N[C@@H](CC(C)C)C(=O)NC(C)(C)C(=O)NC(C)(C)C(=O)NCCC(=O)NC1(CN(C)C)CCC1` [Compound 6253, (2S)—N-[(1S)-1-[(1-{[(1S)-1-{[(1S)-1-({1-[(1-{[2-({1-[(dimethylamino)methyl]cyclobutyl}carbamoyl)ethyl]carbamoyl}-1-methylethyl)carbamoyl]-1-methylethyl}carbamoyl)-3-methylbutyl]carbamoyl}-3-methylbutyl]carbamoyl}-1-methylethyl)carbamoyl]-3-methylbutyl]-2-{[(2S)-1-(2-methyl-1,3-oxazole-4-carbonyl)pyrrolidin-2-yl]formamido}decanamide] ({Oxazole4CO(2-Me)}-P[Gly(octyl)]L[Aib]LL[Aib][Aib][βAla]-{NH(1-CH2NMe2-cBu)}) reads 140 nM; that for `CC(C)C[C@@H](CC(=O)NC(C)(C)C(=O)NC(C)(C)C(=O)NCCC(=O)NC1(CN(C)C)CCC1)NC(=O)C[C@H](CC(C)C)NC(=O)C(C)(C)NC(=O)C[C@H](CC(C)C)NC(=O)[C@H](CCC1CCCCC1)NC(=O)[C@@H]1CCCN1C(=O)c1ccc(F)cc1` [Compound 21315, (3S)-3-[(2S)-4-cyclohexyl-2-{[(2S)-1-(4-fluorobenzoyl)pyrrolidin-2-yl]formamido}butanamido]-N-(1-{[(2S)-1-{[(2S)-1-({1-[(1-{[2-({1-[(dimethylamino)methyl]cyclobutyl}carbamoyl)ethyl]carbamoyl}-1-methylethyl)carbamoyl]-1-methylethyl}carbamoyl)-4-methylpentan-2-yl]carbamoyl}-4-methylpentan-2-yl]carbamoyl}-1-methylethyl)-5-methylhexanamide] ({Benzoyl(4-F)}-P[hCha][β3hL][Aib][β3hL][β3hL][Aib][Aib][βAla]-{NH(1-CH2NMe2-cBu)}), 3100 nM; that for `CC(C)C[C@H](NC(=O)[C@H](CCC1CCCCC1)NC(=O)[C@@H]1CCCN1C(=O)c1ccc(F)cc1)C(=O)NC(C)(C)C(=O)N[C@@H](CC(C)C)C(=O)N[C@@H](CC(C)C)C(=O)NC(C)(C)C(=O)N[C@@](C)(C(=O)NCCC(=O)NC1(CN(C)C)CCC1)C(F)(F)F` [Compound 21359, (2S)-2-[(2S)-4-cyclohexyl-2-{[(2S)-1-(4-fluorobenzoyl)pyrrolidin-2-yl]formamido}butanamido]-N-(1-{[(1S)-1-{[(1S)-1-[(1-{[(1S)-1-{[2-({1-[(dimethylamino)methyl]cyclobutyl}carbamoyl)ethyl]carbamoyl}-2,2,2-trifluoro-1-methylethyl]carbamoyl}-1-methylethyl)carbamoyl]-3-methylbutyl]carbamoyl}-3-methylbutyl]carbamoyl}-1-methylethyl)-4-methylpentanamide] ({Benzoyl(4-F)}-P[hCha]L[Aib]LL[Aib][X4][βAla]-{NH(1-CH2NMe2-cBu)}), 360 nM.
The result for `Cc1nc(C(=O)N2CCC[C@H]2C(=O)N[C@@H](Cc2ccccc2)C(=O)N[C@@H](CC(C)C)C(=O)NC(C)(C)C(=O)N[C@@H](CC(C)C)C(=O)N[C@@H](CC(C)C)C(=O)NC(C)(C)C(=O)NC(C)(C)C(=O)NCCC(=O)NC2(CN(C)C)CCC2)co1` [Compound 6328, (2S)—N-(1-{[(1S)-1-{[(1S)-1-({1-[(1-{[2-({1-[(dimethylamino)methyl]cyclobutyl}carbamoyl)ethyl]carbamoyl}-1-methylethyl)carbamoyl]-1-methylethyl}carbamoyl)-3-methylbutyl]carbamoyl}-3-methylbutyl]carbamoyl}-1-methylethyl)-4-methyl-2-[(2S)-2-{[(2S)-1-(2-methyl-1,3-oxazole-4-carbonyl)pyrrolidin-2-yl]formamido}-3-phenylpropanamido]pentanamide] ({Oxazole4CO(2-Me)}-PFL[Aib]LL[Aib][Aib][βAla]-{NH(1-CH2NMe2-cBu)}) reads 1660 nM.
For `CC(C)C[C@H](NC(=O)[C@H](CCC1CCCCC1)NC(=O)[C@@H]1CCCN1C(=O)c1ccc(F)cc1)C(=O)NC(C)(C)C(=O)N[C@@H](CC(C)C)C(=O)N[C@@H](CC(C)C)C(=O)NC(C)(C)C(=O)NC(C)(C)C(=O)NCCC(=O)NCCN(C)CC(F)F` [Compound 8342, (2S)-2-[(2S)-4-cyclohexyl-2-{[(2S)-1-(4-fluorobenzoyl)pyrrolidin-2-yl]formamido}butanamido]-N-(1-{[(1S)-1-{[(1S)-1-({1-[(1-{[2-({2-[(2,2-difluoroethyl)(methyl)amino]ethyl}carbamoyl)ethyl]carbamoyl}-1-methylethyl)carbamoyl]-1-methylethyl}carbamoyl)-3-methylbutyl]carbamoyl}-3-methylbutyl]carbamoyl}-1-methylethyl)-4-methylpentanamide] ({Benzoyl(4-F)}-P[hCha]L[Aib]LL[Aib][Aib][βAla]-X3) the value was 584 nM.
For `COc1ccc(-c2ccc(OC[C@H](NC(=O)[C@@H]3CCCN3C(=O)c3ccc(F)cc3)C(=O)N[C@@H](CC(C)C)C(=O)NC(C)(C)C(=O)N[C@@H](CC(C)C)C(=O)N[C@@H](CC(C)C)C(=O)NC(C)(C)C(=O)NC(C)(C)C(=O)NCCC(=O)NC3(CN(C)C)CCC3)cc2)cc1` [Compound 7824, (2S)—N-{1-[(1-{[2-({1-[(dimethylamino)methyl]cyclobutyl}carbamoyl)ethyl]carbamoyl}-1-methylethyl)carbamoyl]-1-methylethyl}-2-[(2S)-2-{2-[(2S)-2-[(2S)-2-{[(2S)-1-(4-fluorobenzoyl)pyrrolidin-2-yl]formamido}-3-({4′-methoxy-[1,1′-biphenyl]-4-yl}oxy)propanamido]-4-methylpentanamido]-2-methylpropanamido}-4-methylpentanamido]-4-methylpentanamide], the half-inhibitory concentration (IC50) turned out to be 375 nM.
For `Cc1nc(C(=O)N2CCC[C@H]2C(=O)N[C@@H](CCC2CCCCC2)C(=O)N[C@@H](CC(C)C)C(=O)NC(C)(C)C(=O)N[C@@H](CC(C)C)C(=O)N[C@@H](CC(C)C)C(=O)NC(C)(C)C(=O)NC(C)(C)C(=O)NCCC(=O)NC2(CN(C)C)CCC2)co1` [Compound 6025, (2S)-2-[(2S)-4-cyclohexyl-2-{[(2S)-1-(2-methyl-1,3-oxazole-4-carbonyl)pyrrolidin-2-yl]formamido}butanamido]-N-(1-{[(1S)-1-{[(1S)-1-({1-[(1-{[2-({1-[(dimethylamino)methyl]cyclobutyl}carbamoyl)ethyl]carbamoyl}-1-methylethyl)carbamoyl]-1-methylethyl}carbamoyl)-3-methylbutyl]carbamoyl}-3-methylbutyl]carbamoyl}-1-methylethyl)-4-methylpentanamide] ({Oxazole4CO(2-Me)}-P[hCha]L[Aib]LL[Aib][Aib][βAla]-{NH(1-CH2NMe2-cBu)}) the value was 396 nM.
